Species on record: Rattus norvegicus
Test: Open TG-GATES - Regimen: Daily Repeat
Format: toxicity, organism-based, Sprague-Dawley
Design: regimen Daily Repeat, gender Male, age 6 weeks
Conditions: in vivo, po, 0 mg/kg, route gavage, dose level Control; for APTT / Bas / Eos / Fbg / Hb / Ht / Lym / MCH / MCHC / MCV / Mono / Neu / PT / Plat / RBC / Ret / WBC: tissue Blood
[1] = 72 h, tissue Kidney, time 3 day
[2] = 72 h, tissue Plasma, time 3 day

Q: `C[C@H]1O[C@H](O[C@H]2[C@H](O)[C@@H](O)[C@@H](O[C@H]3[C@H](O)[C@@H](O)C(O)O[C@@H]3CO)O[C@@H]2CO)[C@H](O)[C@@H](O)[C@@H]1N[C@H]1C=C(CO)[C@@H](O)[C@H](O)[C@H]1O` (stereo partly specified) [ACARBOSE] was tested. Which TERMINAL_BW (72 h, time 3 day) did it give?
A: The TERMINAL_BW was 228.3 g.

Q: And the APTT (72 h, time 3 day)?
A: The APTT was 16.7 s.

Q: And the Bas (72 h, time 3 day)?
A: The Bas was 0%.

Q: And the Eos (72 h, time 3 day)?
A: Its Eos is 1.2%.

Q: What about the Fbg (72 h, time 3 day) of the same compound?
A: Its Fbg is 274.6 mg/dL.

Q: What about the Hb (72 h, time 3 day) of the same compound?
A: The Hb was 13.7 g/dL.

Q: What about the Ht (72 h, time 3 day) of the same compound?
A: The Ht was 41.3%.

Q: What about the Lym (72 h, time 3 day) of the same compound?
A: The Lym was 73.2%.

Q: What about the MCH (72 h, time 3 day) of the same compound?
A: The MCH was 21.7 pg.

Q: And the MCHC (72 h, time 3 day)?
A: Its MCHC is 33.1%.

Q: And the MCV (72 h, time 3 day)?
A: Its MCV is 65.4 fL.

Q: And the Mono (72 h, time 3 day)?
A: Its Mono is 3.2%.

Q: And the Neu (72 h, time 3 day)?
A: Its Neu is 21.4%.

Q: And the PT (72 h, time 3 day)?
A: The PT was 13 s.

Q: And the Plat (72 h, time 3 day)?
A: The Plat was 129.5 x10_4/uL.

Q: And the RBC (72 h, time 3 day)?
A: Its RBC is 632.2 x10_4/ul.

Q: What about the Ret (72 h, time 3 day) of the same compound?
A: Its Ret is 7%.

Q: What about the WBC (72 h, time 3 day) of the same compound?
A: The WBC was 102.7 x10_2/uL.

Q: And the KIDNEY_L [1]?
A: Its KIDNEY_L is 1 g.

Q: What about the KIDNEY_R [1] of the same compound?
A: The KIDNEY_R was 1 g.

Q: What about the KIDNEY_TOTAL [1] of the same compound?
A: Its KIDNEY_TOTAL is 2 g.

Q: What about the LIVER (72 h, tissue Liver, time 3 day) of the same compound?
A: Its LIVER is 10.3 g.

Q: And the A/G [2]?
A: Its A/G is 0.9.

Q: What about the ALP [2] of the same compound?
A: The ALP was 1816 IU/L.

Q: What about the ALT [2] of the same compound?
A: The ALT was 42.4 IU/L.

Q: And the AST [2]?
A: Its AST is 71 IU/L.

Q: What about the BUN [2] of the same compound?
A: The BUN was 14 mg/dL.

Q: And the CRE [2]?
A: The CRE was 0.2 mg/dL.

Q: What about the Ca [2] of the same compound?
A: Its Ca is 10.8 mg/dL.

Q: And the Cl [2]?
A: The Cl was 104.2 meq/L.

Q: What about the DBIL [2] of the same compound?
A: Its DBIL is 0.006 mg/dL.

Q: What about the GLC [2] of the same compound?
A: The GLC was 173 mg/dL.

Q: And the IP [2]?
A: The IP was 7.5 mg/dL.

Q: What about the K [2] of the same compound?
A: The K was 4 meq/L.

Q: And the LDH [2]?
A: Its LDH is 86.2 IU/L.

Q: And the Na [2]?
A: The Na was 140.6 meq/L.

Q: And the PL [2]?
A: Its PL is 144.8 mg/dL.

Q: And the RALB [2]?
A: The RALB was 2.6 g/dL.

Q: And the TBIL [2]?
A: The TBIL was 0.054 mg/dL.

Q: And the TC [2]?
A: Its TC is 71.6 mg/dL.

Q: What about the TG [2] of the same compound?
A: Its TG is 99 mg/dL.

Q: What about the TP [2] of the same compound?
A: Its TP is 5.5 g/dL.

Q: What about the gamma-GTP [2] of the same compound?
A: Its gamma-GTP is 1 IU/L.

Q: And the TERMINAL_BW ([…], time 7 day)?
A: Its TERMINAL_BW is 273.8 g.

Q: And the TERMINAL_BW ([…], time 14 day)?
A: Its TERMINAL_BW is 316.7 g.

Q: What about the TERMINAL_BW ([…], time 28 day) of the same compound?
A: The TERMINAL_BW was 390.9 g.

Q: What about the APTT ([…], time 7 day) of the same compound?
A: The APTT was 18 s.

Q: What about the Bas ([…], time 7 day) of the same compound?
A: Its Bas is 0.2%.

Q: And the Eos ([…], time 7 day)?
A: Its Eos is 0.8%.

Q: And the Fbg ([…], time 7 day)?
A: The Fbg was 296.6 mg/dL.

Q: What about the Hb ([…], time 7 day) of the same compound?
A: The Hb was 13.9 g/dL.

Q: What about the Ht ([…], time 7 day) of the same compound?
A: Its Ht is 41.6%.

Q: And the Lym ([…], time 7 day)?
A: Its Lym is 77.2%.

Q: And the MCH ([…], time 7 day)?
A: Its MCH is 21.3 pg.

Q: What about the MCHC ([…], time 7 day) of the same compound?
A: Its MCHC is 33.3%.

Q: And the MCV ([…], time 7 day)?
A: Its MCV is 63.9 fL.

Q: What about the Mono ([…], time 7 day) of the same compound?
A: Its Mono is 2.6%.

Q: What about the Neu ([…], time 7 day) of the same compound?
A: Its Neu is 18.6%.

Q: What about the PT ([…], time 7 day) of the same compound?
A: Its PT is 12.8 s.

Q: What about the Plat ([…], time 7 day) of the same compound?
A: The Plat was 129.4 x10_4/uL.

Q: And the RBC ([…], time 7 day)?
A: The RBC was 652.4 x10_4/ul.

Q: What about the Ret ([…], time 7 day) of the same compound?
A: The Ret was 6.5%.

Q: What about the WBC ([…], time 7 day) of the same compound?
A: The WBC was 89.4 x10_2/uL.

Q: What about the APTT ([…], time 14 day) of the same compound?
A: The APTT was 22.2 s.

Q: What about the Bas ([…], time 14 day) of the same compound?
A: Its Bas is 0%.

Q: And the Eos ([…], time 14 day)?
A: Its Eos is 0.8%.

Q: What about the Fbg ([…], time 14 day) of the same compound?
A: The Fbg was 287.8 mg/dL.

Q: What about the Hb ([…], time 14 day) of the same compound?
A: Its Hb is 14.6 g/dL.

Q: And the Ht ([…], time 14 day)?
A: Its Ht is 43.2%.

Q: And the Lym ([…], time 14 day)?
A: Its Lym is 76%.

Q: And the MCH ([…], time 14 day)?
A: The MCH was 20.3 pg.

Q: What about the MCHC ([…], time 14 day) of the same compound?
A: The MCHC was 33.8%.

Q: And the MCV ([…], time 14 day)?
A: The MCV was 60.1 fL.

Q: And the Mono ([…], time 14 day)?
A: Its Mono is 2%.

Q: What about the Neu ([…], time 14 day) of the same compound?
A: The Neu was 20%.

Q: And the PT ([…], time 14 day)?
A: The PT was 13.1 s.

Q: And the Plat ([…], time 14 day)?
A: Its Plat is 124.4 x10_4/uL.

Q: What about the RBC ([…], time 14 day) of the same compound?
A: The RBC was 720 x10_4/ul.

Q: And the Ret ([…], time 14 day)?
A: The Ret was 4.4%.

Q: And the WBC ([…], time 14 day)?
A: Its WBC is 107.6 x10_2/uL.

Q: And the APTT ([…], time 28 day)?
A: The APTT was 20.5 s.

Q: And the Bas ([…], time 28 day)?
A: Its Bas is 0%.

Q: And the Eos ([…], time 28 day)?
A: The Eos was 1.6%.

Q: And the Fbg ([…], time 28 day)?
A: Its Fbg is 283.4 mg/dL.

Q: And the Hb ([…], time 28 day)?
A: Its Hb is 15.9 g/dL.

Q: And the Ht ([…], time 28 day)?
A: The Ht was 45.7%.

Reference: ChEMBL document CHEMBL3885861, “Open TG-GATES”
